The source made the active and inactive calls. No cut-off for these calls is given here. Where only a bound is given, the exact number is not on record here.

In data set [1] the test system is K562. Kind of data set: Cell cycle arrest in human K562 cells assessed as accumulation at S phase at 1 uM after 24 hrs using propidium iodide staining by flow cytometry. The class given is functional.
In data set [2] the test system is K562. The data set is described as follows: Selectivity index, ratio of GI50 for human Detroit 551 cells to GI50 for human K562 cells. It is filed as functional.
Data set [3] concerns K562. Kind of data set: Cell cycle arrest in human K562 cells assessed as accumulation at Sub-G1 phase at 1 uM after 24 hrs using propidium iodide staining by flow cytometry. The class given is functional. (A flow cytometer gives signals particle by particle.)
The test system of data set [4] is K562. Kind of data set: Cell cycle arrest in human K562 cells assessed as accumulation at G2/M phase at 1 uM after 24 hrs using propidium iodide staining by flow cytometry. It is filed as functional.
The test system of data set [5] is MCF7. Kind of data set: Cytotoxicity against human MCF7 cells after 72 hrs by XTT assay. The class given is functional. The conditions noted are these: MCF7, 72 h. For orientation: Tetrazolium assays rely on reduction of a dye to a coloured formazan, in cell work by metabolically active cells.
Data set [6] has as its system NCI-H460. The data set is described as follows: Cytotoxicity against human NCI-H460 cells after 72 hrs by XTT assay. The class given is functional. The conditions noted are these: NCI-H460, 72 h.
Data set [7] deals with K562. Kind of data set: Induction of apoptosis in human K562 cells assessed as morphological changes at 1 to 10 uM after 48 hrs using DAPI staining by fluorescent microscopic analysis. It is filed as functional, cell-based.
Data set [8] relates to NCI-H460. Kind of data set: Selectivity index, ratio of GI50 for human Detroit 551 cells to GI50 for human NCI-H460 cells. It is filed as functional.
In data set [9] the test system is K562. The data set is described as follows: Induction of apoptosis in human K562 cells assessed as formation of fragmented DNA at 1 to 10 uM after 48 hrs using ethidium bromide staining by agarose gel electrophoresis. It is filed as functional, cell-based.
Data set [10] in a line: Cytotoxicity against human Detroit 551 cells after 72 hrs by XTT assay. The class given is cell-based.
Data set [11] deals with MCF7. The data set is described as follows: Cytotoxicity against human MCF7 cells at 4 ug/ml after 48 hrs by sulforhodamine B assay relative to control. It is filed as functional.
The test system of data set [12] is K562. Kind of data set: Induction of apoptosis in human K562 cells assessed as PARP cleavage after 48 hrs by immunoblot analysis. The class given is functional, cell-based.
Data set [13] concerns SF-268. Kind of data set: Selectivity index, ratio of GI50 for human Detroit 551 cells to GI50 for human SF268 cells. It is filed as functional.
In data set [14] the test system is MCF7. Kind of data set: Selectivity index, ratio of GI50 for human Detroit 551 cells to GI50 for human MCF7 cells. It is filed as functional.
For data set [15], the system named is NCI-H460. Kind of data set: Cytotoxicity against human NCI-H460 cells at 4 ug/ml after 48 hrs by sulforhodamine B assay relative to control. The class given is functional. In general terms: In SRB staining, fixed cells bind dye roughly in proportion to their protein.
Data set [16] deals with SF-268. Kind of data set: Cytotoxicity against human SF268 cells at 4 ug/ml after 48 hrs by sulforhodamine B assay relative to control. It is filed as functional.
Data set [17] deals with K562. The data set is described as follows: Cytotoxicity against human K562 cells after 72 hrs by XTT assay. The conditions noted are these: K562, 72 h. The class given is functional.
Data set [18] concerns SF-268. The data set is described as follows: Cytotoxicity against human SF268 cells after 72 hrs by XTT assay. The class given is functional. The conditions noted are these: SF-268, 72 h.
Data set [19] has as its system K562. The data set is described as follows: Induction of apoptosis in human K562 cells assessed as activation of caspase-3 activity after 48 hrs by immunoblot analysis. It is filed as functional, cell-based.
Data set [20] has as its system K562. Kind of data set: Cell cycle arrest in human K562 cells assessed as accumulation at G0/G1 phase at 1 uM after 24 hrs using propidium iodide staining by flow cytometry. It is filed as functional.

In general, GI50 refers to the concentration that inhibits growth by half. The low end stands for more potent growth inhibition, the high end for less potent growth inhibition. Take `CO/N=C1/c2ccccc2C(=O)c2occc21`: the Activity is 35.7% in [1]; 4.8% in data set [3]; 38.2% in data set [4]; 36% in data set [11]; “Dose-dependent effect” in data set [12]; 4% in data set [15]. Besides, the Activity in data set [16] is 22%; in data set [19], “Dose-dependent effect”; in data set [20] it was 26.1%. For the same compound, the RatioGI50 in data set [2] was more than 166.67; in data set [8] it was more than 14.79; in [13] it was more than 6.05; in [14] it was more than 9.85. In addition, the GI50 in data set [5] turned out to be 10.2 µM; in data set [6] it was 6.76 µM; in data set [17] it was 0.6 µM; in [18] it was 16.5 µM. Moreover, the result in data set [7] and in data set [9] was Active. The compound also gave a GI50 at 72 h in data set [10] of more than 100 µM.
